Patent publication US20230098254A1, “SCUTELLARIAE RADIX COMPOUNDS AND USE THEREOF FOR INHIBITING OXIDATIVE PHOSPHORYLATION PATHWAY OF MITOCHONDRIA” (priority 2020, published 2023)

Columns and labels:
Type in all cases: cell-based
DU 145 = experiment: Cell viability CellTiter-Glo, DU 145; details: Homo sapiens; DU 145, prostate cancer
Procedure: (§1) Cell viability was measured by using the Promega CellTiter-Glo kit, the kit reflected cell viability by directly measuring intracellular ATP content. Different cancer cells were cultured in culture medium, and the 50% inhibitory concentration IC50 of the compound SJ2858 was measured by Promega CellTiter-Glo kit. The name source and culture condition of each tumor cell line were as follows:
Cell line DU 145 (ATCC, No. HTB-81) was cultured in EMEM medium containing 10% fetal bovine serum (+P/S);

NCI-H 1793 = experiment: Cell viability CellTiter-Glo, NCI-H 1793; details: Homo sapiens, NCI-H1793; NCI-H 1793, lung cancer
Procedure: as §1
Cell line NCI-H1793 (ATCC, No. CRL-5896) was cultured in HITES medium containing 5% fetal bovine serum (+P/S);

Gp2D = experiment: Cell viability CellTiter-Glo, Gp2D; details: intestinal cancer
Procedure: as §1
Cell line Gp2D (ECACC, No. 95090714) was cultured in DMEM medium containing 10% fetal bovine serum (+P/S);

## O=c1cc(-c2ccccc2)oc2cc(O)c(O)c(O)c12 [Compound SJ2858, baicalein]
DU 145
  IC50: 37.8 µM
NCI-H 1793
  IC50: 35.2 µM
Gp2D
  IC50: 14.9 µM
